Here are results for one compound from article PMC9719519, “Non-classical ferroptosis inhibition by a small molecule targeting PHB2” (Nature Communications, 2022).

Holding throughout (experiment): biochemical
Set-up in all cases: Eurofins recombinant human kinase profiling, remaining kinase activity as % of control, 10 uM ATP
What all share (details): ATP 10 uM; read-out: %Ctrl@10 μM

The target of assay [1] is CDK12/cyclinK(h) (Homo sapiens, UniProt Q9NYV4). The method, boiled down:
(§1)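 Activity measured in a commercial panel of 401 recombinant human protein kinases run as a kinase profiling service.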

For assay [2], the target named is Cdc7/cyclinB1(h) (Homo sapiens, UniProt O00311). The method, boiled down:
as §1

Assay [3] deals with DMPK(h) (Homo sapiens, UniProt Q09013). The method, boiled down: as §1
In assay [4] the target is EGFR(T790M,L858R)(h) (Homo sapiens, UniProt P00533, L858R/T790M). In short, it runs like this:
as §1

The target of assay [5] is FGFR1(h) (Homo sapiens, UniProt P11362). In short, it runs like this:
as §1

The target in assay [6] is Fer(h) (Homo sapiens, UniProt P16591). In short, it runs like this:
as §1

The target of assay [7] is Fgr(h) (Homo sapiens, UniProt P09769). The method, boiled down: as §1
The target of assay [8] is Itk(h) (Homo sapiens, UniProt Q08881). The method, boiled down:
as §1

For assay [9], the target named is MARK4(h) (Homo sapiens, UniProt Q96L34). The method, boiled down: as §1
Assay [10] concerns the target NEK7(h) (Homo sapiens, UniProt Q8TDX7). The method, boiled down:
as §1

In assay [11] the target is T1, PAR-1Bα(h) (Homo sapiens, UniProt Q7KZI7).
T1 construct: gene MARK2
In short, it runs like this:
as §1

In assay [12] the target is T2, PEK(h) (Homo sapiens, UniProt Q9NZJ5).
T2 construct: gene EIF2AK3
In short, it runs like this: as §1

The target of assay [13] is T3, PKBγ(h) (Homo sapiens, UniProt Q9Y243).
T3 construct: gene AKT3
The method, boiled down:
as §1

For assay [14], the target named is T4, PKCβI(h) (Homo sapiens, UniProt P05771).
T4 construct: gene PRKCB; isoform beta I
In short, it runs like this:
as §1

Assay [15] has as its target T5, PRAK(h) (Homo sapiens, UniProt Q8IW41).
T5 construct: gene MAPKAPK5
The method, boiled down:
as §1

Assay [16] has as its target PrKX(h) (Homo sapiens, UniProt P51817). The method, boiled down:
as §1

In assay [17] the target is T6, ROCK-I(h) (Homo sapiens, UniProt Q13464).
T6 construct: gene ROCK1
T6 sequence (Q13464 whole entry): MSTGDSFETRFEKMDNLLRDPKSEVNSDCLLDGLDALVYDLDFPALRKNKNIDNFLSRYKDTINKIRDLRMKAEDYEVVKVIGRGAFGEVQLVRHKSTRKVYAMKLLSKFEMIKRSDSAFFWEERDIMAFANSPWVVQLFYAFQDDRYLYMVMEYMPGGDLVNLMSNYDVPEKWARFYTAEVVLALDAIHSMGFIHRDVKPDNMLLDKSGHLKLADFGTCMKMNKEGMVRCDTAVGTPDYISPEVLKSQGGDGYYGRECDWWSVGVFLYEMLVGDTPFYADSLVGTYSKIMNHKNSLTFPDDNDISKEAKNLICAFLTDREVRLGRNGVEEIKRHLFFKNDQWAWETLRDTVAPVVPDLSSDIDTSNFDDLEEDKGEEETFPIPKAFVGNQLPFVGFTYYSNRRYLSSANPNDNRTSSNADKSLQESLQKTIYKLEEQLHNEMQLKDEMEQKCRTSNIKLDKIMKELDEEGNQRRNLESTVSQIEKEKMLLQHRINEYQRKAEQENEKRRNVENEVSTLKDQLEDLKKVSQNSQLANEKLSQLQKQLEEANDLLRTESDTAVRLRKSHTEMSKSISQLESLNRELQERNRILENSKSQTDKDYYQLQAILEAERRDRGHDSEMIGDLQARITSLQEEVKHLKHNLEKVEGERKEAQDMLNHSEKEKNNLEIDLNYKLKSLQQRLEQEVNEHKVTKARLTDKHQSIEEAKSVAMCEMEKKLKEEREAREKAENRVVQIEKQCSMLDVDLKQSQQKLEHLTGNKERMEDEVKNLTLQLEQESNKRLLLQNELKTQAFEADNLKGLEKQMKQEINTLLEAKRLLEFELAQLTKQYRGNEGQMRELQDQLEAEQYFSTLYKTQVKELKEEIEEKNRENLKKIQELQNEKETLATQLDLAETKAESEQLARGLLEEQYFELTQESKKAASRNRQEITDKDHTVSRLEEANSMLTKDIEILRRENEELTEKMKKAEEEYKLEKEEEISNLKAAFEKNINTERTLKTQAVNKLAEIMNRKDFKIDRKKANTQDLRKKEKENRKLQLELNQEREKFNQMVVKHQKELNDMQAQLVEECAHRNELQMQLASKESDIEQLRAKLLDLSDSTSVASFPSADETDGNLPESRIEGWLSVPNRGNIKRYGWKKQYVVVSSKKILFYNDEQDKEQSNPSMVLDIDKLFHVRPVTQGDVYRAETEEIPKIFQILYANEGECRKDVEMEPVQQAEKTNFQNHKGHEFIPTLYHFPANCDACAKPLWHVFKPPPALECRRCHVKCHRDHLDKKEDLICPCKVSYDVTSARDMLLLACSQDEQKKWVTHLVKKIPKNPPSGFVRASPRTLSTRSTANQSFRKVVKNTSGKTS
In short, it runs like this:
as §1

Assay [18] deals with T7, Ros(h) (Homo sapiens, UniProt P08922).
T7 construct: gene ROS1
T7 sequence (P08922 whole entry): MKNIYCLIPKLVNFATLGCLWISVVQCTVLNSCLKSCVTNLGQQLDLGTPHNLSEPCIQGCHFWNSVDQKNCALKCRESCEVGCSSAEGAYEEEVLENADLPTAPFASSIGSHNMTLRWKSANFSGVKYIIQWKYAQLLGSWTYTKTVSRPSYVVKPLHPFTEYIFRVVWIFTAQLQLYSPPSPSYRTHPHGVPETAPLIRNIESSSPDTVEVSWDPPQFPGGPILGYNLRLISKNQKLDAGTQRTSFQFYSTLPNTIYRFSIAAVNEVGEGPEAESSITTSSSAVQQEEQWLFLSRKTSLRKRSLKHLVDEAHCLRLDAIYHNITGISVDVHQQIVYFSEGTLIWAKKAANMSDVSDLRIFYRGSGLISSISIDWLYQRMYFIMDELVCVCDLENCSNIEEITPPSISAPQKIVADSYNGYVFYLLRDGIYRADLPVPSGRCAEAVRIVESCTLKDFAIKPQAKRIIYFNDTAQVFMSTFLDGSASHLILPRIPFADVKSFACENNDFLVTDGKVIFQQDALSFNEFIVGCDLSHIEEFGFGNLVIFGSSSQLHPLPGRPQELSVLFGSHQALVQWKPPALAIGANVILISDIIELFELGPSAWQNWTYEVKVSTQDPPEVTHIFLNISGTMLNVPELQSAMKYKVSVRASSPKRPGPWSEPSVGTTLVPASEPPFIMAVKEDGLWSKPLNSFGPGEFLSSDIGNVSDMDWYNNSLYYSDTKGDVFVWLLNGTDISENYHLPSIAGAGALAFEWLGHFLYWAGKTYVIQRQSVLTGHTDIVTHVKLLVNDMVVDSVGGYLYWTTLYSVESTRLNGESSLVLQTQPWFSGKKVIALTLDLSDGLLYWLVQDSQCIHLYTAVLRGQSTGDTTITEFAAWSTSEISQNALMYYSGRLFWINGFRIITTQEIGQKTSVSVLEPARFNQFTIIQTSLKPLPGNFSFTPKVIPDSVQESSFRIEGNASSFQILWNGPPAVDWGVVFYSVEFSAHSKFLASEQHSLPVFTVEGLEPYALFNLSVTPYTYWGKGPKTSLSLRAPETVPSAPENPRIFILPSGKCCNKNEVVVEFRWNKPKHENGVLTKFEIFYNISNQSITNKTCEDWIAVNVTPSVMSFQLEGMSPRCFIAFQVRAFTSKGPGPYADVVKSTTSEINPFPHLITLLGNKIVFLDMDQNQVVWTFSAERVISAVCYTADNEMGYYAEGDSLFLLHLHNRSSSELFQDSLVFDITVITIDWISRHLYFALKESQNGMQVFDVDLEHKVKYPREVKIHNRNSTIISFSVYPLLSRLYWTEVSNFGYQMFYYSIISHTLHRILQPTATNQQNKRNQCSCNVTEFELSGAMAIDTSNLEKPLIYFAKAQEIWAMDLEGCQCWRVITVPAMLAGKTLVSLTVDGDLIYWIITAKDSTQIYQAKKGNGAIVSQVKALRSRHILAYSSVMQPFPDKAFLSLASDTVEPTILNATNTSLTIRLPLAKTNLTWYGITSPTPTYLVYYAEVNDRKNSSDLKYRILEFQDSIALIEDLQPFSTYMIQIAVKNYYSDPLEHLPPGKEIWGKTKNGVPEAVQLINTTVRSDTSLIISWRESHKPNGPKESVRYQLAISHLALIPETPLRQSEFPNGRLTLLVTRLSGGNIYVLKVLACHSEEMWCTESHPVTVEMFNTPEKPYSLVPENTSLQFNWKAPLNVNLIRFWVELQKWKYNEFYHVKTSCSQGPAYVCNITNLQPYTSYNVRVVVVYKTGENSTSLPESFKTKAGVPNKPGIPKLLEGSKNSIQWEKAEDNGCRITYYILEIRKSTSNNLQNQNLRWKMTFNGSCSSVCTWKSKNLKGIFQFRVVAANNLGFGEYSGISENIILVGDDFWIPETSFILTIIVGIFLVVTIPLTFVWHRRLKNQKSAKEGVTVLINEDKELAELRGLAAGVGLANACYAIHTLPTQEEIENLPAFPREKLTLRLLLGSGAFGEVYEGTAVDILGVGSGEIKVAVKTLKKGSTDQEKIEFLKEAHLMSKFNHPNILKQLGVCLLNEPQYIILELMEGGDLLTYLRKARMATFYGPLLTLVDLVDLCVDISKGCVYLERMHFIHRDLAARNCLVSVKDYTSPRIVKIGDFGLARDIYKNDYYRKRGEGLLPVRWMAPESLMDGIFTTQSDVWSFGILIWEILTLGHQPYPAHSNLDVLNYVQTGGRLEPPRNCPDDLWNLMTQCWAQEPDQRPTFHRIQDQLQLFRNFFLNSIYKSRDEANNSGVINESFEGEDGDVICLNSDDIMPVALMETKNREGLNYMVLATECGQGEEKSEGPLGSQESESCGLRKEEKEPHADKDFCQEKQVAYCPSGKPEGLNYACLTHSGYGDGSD
In short, it runs like this: as §1

For assay [19], the target named is SIK2(h) (Homo sapiens, UniProt Q9H0K1). In short, it runs like this:
as §1

Assay [20] has as its target SRPK1(h) (Homo sapiens, UniProt Q96SB4). The method, boiled down:
as §1

Assay [21] addresses SRPK2(h) (Homo sapiens, UniProt P78362). The method, boiled down: as §1
The target in assay [22] is ULK3(h) (Homo sapiens, UniProt Q6PHR2). The method, boiled down:
as §1

Assay [23] has as its target T8, c-RAF(h) (Homo sapiens, UniProt P04049).
T8 construct: gene RAF1
In short, it runs like this:
as §1

Chain of PrKX(h) (P51817 whole entry): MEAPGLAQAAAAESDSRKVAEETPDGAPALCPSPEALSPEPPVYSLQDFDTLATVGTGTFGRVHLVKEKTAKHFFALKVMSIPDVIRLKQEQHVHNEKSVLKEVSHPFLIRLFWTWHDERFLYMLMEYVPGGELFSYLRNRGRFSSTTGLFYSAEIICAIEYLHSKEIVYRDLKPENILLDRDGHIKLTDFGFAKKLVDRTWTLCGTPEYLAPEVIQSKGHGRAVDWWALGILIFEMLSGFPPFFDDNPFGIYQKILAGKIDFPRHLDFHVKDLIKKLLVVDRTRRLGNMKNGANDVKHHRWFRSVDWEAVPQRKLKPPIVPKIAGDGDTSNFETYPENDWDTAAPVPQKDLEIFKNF
Chain of Itk(h) (Q08881 whole entry): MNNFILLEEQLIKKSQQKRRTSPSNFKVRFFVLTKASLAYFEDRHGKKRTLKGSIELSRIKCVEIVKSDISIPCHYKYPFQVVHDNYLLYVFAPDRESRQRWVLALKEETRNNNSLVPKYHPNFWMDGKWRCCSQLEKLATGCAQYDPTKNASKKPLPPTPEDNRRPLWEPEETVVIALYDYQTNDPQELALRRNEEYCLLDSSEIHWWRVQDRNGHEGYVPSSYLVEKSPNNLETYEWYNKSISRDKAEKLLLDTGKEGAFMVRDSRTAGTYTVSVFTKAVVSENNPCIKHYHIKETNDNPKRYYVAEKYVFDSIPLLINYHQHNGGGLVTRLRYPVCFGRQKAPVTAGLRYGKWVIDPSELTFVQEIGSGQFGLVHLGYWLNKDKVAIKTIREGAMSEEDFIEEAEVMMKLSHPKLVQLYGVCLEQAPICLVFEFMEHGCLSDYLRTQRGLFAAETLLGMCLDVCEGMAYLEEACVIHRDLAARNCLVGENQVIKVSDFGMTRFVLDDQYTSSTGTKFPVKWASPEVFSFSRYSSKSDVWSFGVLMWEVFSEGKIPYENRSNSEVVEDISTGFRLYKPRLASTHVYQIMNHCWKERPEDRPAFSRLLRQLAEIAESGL
Chain of NEK7(h) (Q8TDX7 whole entry): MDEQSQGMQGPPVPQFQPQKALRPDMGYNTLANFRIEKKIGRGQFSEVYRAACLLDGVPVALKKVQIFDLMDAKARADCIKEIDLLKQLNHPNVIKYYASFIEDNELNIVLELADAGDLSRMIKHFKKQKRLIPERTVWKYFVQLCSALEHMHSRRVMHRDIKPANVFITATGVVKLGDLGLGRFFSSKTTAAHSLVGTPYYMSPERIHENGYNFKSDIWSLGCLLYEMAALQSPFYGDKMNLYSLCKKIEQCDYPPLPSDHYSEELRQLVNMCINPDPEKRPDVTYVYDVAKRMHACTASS

As to `C1=C(c2nc(-c3cnn(C4CCNCC4)c3)cn3cc(-c4ccccc4)nc23)CCOC1` [YL-939], the remaining activity at 10 µM in assay [1] was 99%; in assay [2], 104%; in assay [3], 107%; in assay [4], 91%; in [5] it was 115%; in assay [6] it was 86%. Besides, the remaining activity at 10 µM in [7] was 76%; in assay [8], 106%; in [9], 111%; in [10], 89%; in [11], 101%; in assay [12] it was 99%. The remaining activity at 10 µM in assay [13] was 97%; in [14] it was 98%; in assay [15] it was 144%; in [16], 80%; in [17], 94%; in assay [18], 97%. Also, the remaining activity at 10 µM in assay [19] amounted to 94%; in [20], 107%; in assay [21], 87%; in assay [22] it was 68%; in assay [23], 76%.
